Laboratory results: ChEMBL document CHEMBL1201862, “PubChem BioAssay data set” (2004)
Activity calls are given as the source filed them.

Key:
[1] = test system: P388/ADR; test: cells; format: functional; details: Mus musculus
[2] = test system: SN12K1; test: cells; format: functional; details: Homo sapiens
[3] = test system: P388; test: cells; format: functional; details: Mus musculus
[4] = target: T1, Caspase-3 (Homo sapiens, UniProt P42574); format: functional;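 note: Dose-response selectivity test against caspase-3 for candidate inhibitors of sentrin-specific proteases (SENPs)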
T1 sequence (P42574 whole entry): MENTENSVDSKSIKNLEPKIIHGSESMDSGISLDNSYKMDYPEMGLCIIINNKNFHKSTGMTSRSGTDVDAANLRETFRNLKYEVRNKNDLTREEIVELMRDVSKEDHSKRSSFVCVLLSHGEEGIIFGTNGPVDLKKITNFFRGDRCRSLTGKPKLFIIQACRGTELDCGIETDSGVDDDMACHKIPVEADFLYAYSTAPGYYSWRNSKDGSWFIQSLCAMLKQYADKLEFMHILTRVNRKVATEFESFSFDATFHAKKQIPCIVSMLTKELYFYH

[5] = target: T2, Sentrin-specific protease 7 (Homo sapiens, UniProt Q9BQF6); format: functional;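 note: Luminescence-based dose-response confirmation of ultra-high-throughput screening hits, measuring inhibition of SENP7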
T2 sequence (Q9BQF6 whole entry): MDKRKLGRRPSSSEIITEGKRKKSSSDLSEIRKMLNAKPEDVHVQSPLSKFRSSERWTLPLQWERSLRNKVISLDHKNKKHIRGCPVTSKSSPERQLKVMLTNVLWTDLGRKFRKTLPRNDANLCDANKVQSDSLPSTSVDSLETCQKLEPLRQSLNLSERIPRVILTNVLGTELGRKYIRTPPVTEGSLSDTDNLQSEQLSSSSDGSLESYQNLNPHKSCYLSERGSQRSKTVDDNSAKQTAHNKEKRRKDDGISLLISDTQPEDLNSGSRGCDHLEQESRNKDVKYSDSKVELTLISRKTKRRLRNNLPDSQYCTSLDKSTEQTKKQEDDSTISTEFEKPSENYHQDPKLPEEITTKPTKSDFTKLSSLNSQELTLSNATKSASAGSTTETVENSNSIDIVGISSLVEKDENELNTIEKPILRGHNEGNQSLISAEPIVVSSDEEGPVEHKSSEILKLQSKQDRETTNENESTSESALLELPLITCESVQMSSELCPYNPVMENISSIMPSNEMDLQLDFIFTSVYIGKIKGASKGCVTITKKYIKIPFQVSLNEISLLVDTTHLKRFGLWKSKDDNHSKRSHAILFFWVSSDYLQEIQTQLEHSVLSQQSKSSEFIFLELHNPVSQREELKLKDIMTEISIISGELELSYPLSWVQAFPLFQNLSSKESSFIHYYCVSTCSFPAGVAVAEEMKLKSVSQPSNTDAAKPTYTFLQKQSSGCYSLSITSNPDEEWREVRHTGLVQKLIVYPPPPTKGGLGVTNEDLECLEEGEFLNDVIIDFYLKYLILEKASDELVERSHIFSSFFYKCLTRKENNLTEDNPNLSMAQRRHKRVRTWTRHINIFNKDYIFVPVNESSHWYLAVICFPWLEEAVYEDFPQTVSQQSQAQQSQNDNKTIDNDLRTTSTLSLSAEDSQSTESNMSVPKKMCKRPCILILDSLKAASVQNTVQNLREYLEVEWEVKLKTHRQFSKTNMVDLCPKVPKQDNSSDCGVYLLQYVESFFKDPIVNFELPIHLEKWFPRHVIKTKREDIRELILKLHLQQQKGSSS

[6] = target: T3, Sentrin-specific protease 6 (Homo sapiens, UniProt Q9GZR1); format: functional;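 note: Luminescence-based dose-response confirmatory assay of SENP6 inhibition, following up an ultra-high-throughput screen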
T3 sequence (Q9GZR1 whole entry): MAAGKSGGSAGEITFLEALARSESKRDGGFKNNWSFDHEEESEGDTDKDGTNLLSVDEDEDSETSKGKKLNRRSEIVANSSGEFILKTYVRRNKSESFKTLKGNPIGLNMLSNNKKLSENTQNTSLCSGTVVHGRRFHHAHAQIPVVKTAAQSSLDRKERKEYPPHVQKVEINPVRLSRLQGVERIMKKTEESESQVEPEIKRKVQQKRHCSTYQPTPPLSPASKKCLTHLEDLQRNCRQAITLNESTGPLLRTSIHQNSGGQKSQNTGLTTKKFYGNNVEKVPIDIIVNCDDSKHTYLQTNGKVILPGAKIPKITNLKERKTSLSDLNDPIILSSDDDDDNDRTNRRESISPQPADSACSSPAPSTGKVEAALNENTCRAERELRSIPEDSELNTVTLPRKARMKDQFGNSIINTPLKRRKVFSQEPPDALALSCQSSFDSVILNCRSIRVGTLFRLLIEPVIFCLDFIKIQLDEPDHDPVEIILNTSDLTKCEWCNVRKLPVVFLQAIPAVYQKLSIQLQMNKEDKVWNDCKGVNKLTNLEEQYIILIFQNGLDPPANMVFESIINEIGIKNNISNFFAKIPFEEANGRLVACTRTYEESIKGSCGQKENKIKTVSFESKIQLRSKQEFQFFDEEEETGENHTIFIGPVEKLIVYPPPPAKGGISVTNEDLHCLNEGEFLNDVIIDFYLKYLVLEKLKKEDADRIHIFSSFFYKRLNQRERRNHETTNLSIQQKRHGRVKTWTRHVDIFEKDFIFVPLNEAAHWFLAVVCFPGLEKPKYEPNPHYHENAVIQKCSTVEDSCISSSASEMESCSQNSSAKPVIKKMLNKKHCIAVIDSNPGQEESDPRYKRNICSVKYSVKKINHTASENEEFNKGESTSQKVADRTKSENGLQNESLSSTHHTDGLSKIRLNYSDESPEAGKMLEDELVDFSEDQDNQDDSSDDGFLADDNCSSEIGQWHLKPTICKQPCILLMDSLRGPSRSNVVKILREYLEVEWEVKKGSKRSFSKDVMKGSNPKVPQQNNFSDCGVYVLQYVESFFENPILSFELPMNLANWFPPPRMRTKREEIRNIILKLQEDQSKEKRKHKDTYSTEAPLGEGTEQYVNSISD

[7] = target: T4, Sentrin-specific protease 8 (Homo sapiens, UniProt Q96LD8); format: functional;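 note: luminescence read-out of SENP8 inhibition, dose-response confirmation following an ultra-high-throughput screen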
T4 sequence (Q96LD8 whole entry): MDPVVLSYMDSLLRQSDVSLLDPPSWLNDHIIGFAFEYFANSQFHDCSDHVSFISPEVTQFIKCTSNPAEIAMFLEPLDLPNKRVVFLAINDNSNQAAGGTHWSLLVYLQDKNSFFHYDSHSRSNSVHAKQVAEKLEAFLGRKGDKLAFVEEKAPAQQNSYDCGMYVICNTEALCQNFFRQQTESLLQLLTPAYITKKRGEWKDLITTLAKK

[8] = ZM109 Env clade C HIV-1 fusion inhibitors, dose response, HeLa effector, CEM target cells, luciferase, cherry-pick (AID 652058); format: functional, cell-based
[9] = target: T5, DNA repair and recombination protein RAD54-like (Homo sapiens, UniProt Q92698); test: inhibitors of human RAD54 branch migration, confirmation, biochemical, fluorescence, cherry-picked samples, dose series (AID 651657); format: functional
T5 sequence (Q92698 whole entry): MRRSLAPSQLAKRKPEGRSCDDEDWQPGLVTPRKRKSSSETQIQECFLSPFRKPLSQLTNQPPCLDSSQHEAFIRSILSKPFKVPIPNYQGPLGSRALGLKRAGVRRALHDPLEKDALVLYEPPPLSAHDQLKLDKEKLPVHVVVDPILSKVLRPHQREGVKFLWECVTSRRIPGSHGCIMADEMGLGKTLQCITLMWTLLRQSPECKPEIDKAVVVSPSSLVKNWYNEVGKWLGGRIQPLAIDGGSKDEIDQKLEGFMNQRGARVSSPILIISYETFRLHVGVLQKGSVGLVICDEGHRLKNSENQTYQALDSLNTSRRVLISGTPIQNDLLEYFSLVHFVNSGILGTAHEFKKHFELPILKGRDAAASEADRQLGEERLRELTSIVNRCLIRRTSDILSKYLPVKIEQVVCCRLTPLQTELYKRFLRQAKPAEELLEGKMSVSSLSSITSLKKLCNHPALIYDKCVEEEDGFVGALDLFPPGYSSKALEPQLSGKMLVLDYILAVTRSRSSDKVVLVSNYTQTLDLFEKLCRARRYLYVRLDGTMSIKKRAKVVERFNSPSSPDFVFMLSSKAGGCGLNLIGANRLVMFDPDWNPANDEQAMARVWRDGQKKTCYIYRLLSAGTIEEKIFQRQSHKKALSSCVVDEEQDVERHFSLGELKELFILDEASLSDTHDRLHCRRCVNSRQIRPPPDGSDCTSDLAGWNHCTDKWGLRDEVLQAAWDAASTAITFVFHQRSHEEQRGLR

Compound	IC50 [4]	IC50 [5]	IC50 [6]	IC50 [7]	other results
Nc1nc(O)c2ncn(C3OC(CO)C(O)C3O)c2n1 (stereo not given)	–	–	–	–	GI50 [1]: 2.33 µM (inactive); GI50 [2]: 63.2 µM (inactive); GI50 [3]: 9.73 µM (inactive)
O=C(c1cccs1)c1coc2ccc(O)cc12	13.7 µM (active)	7.28 µM (active)	10.6 µM (active)	> 100 µM (inactive)	–
O=C(Nc1ccc(F)cc1)Nc1ccc2c(c1)[C@@H]1C[C@H](CC(=O)N3CCCCC3)O[C@@H](CO)[C@@H]1O2	–	–	–	–	AC50 [8]: 35 µM (active)
Cc1c(/C=C/C(=O)c2ccccc2O)cnn1C	15.3 µM (active)	4.84 µM (active)	14.2 µM (active)	25.2 µM (active)	–
CCOC(=O)c1cnc2ccc(C)cc2c1NCCN1CCOCC1	–	–	–	–	AC50 [9]: 98.8 µM (active)
Cc1c(NC(=O)c2ccccc2N)cccc1C(=O)O	38.1 µM (active)	2.73 µM (active)	9.43 µM (active)	11.4 µM (active)	–
OC(CBr)C(O)C(O)C(O)CBr (stereo not given)	–	–	–	–	GI50 [1]: 5.89 µM (inactive); GI50 [2]: > 100 µM (inactive); GI50 [3]: 3.53 µM (inactive)
